Reference: the NIST ThermoML archive (doi:10.1016/j.fluid.2010.02.020)

Conditions: for mass density: 101.33 kPa, Liquid, Vibrating tube method; for surface tension liquid-gas: Pendant drop shape

CCCn1cc[n+](C)c1.O=S(=O)([N-]S(=O)(=O)C(F)(F)F)C(F)(F)F
Conditions | mass density [kg/m3] | surface tension liquid-gas [mN/m]
293.15 K | 1480.5 | –
303.15 K | 1470.8 | –
312.9 K | – | 32.5
313.15 K | 1461.1 | –
323.15 K | 1451.5 | –
333.15 K | 1441.9 | –
333.6 K | – | 31.5
343.15 K | 1432.4 | –
353.15 K | 1422.9 | –
353.9 K | – | 30.2
363.15 K | 1413.5 | –
373.15 K | 1404 | –
373.5 K | – | 28.8
374.2 K | – | 29.1
383.15 K | 1394.5 | –
393.15 K | 1384.9 | –
393.5 K | – | 29.4
394.5 K | – | 28
403.15 K | 1375.3 | –
413.15 K | 1365.6 | –
413.6 K | – | 28.2
414.9 K | – | 27.1
423.15 K | 1355.8 | –
433.15 K | 1345.9 | –
433.3 K | – | 27.6
435.2 K | – | 26.3
443.15 K | 1335.9 | –
453.15 K | 1325.8 | –
453.2 K | – | 26.8
455.5 K | – | 26.1
463.15 K | 1315.6 | –
473 K | – | 24.4
473.15 K | 1305.1 | –
475.7 K | – | 24.6
